“And” between values parts separate entries of the source, which are not always exact repeats. Equal entries are not always repeated.
Legend:
[1] = system: osteoarthritis in rabbit knee; test: Pain assessment (weight distribution across both hind limbs), rabbit knee osteoarthritis model; format: in vivo, rabbits (Kbs:NZW); conditions: for Weight distribution, Mean / Left hind limb / Right hind limb / Weight distribution (%) on treated limb (right hind limb): 10 μg/rabbit into joint cavity; for Weight distribution, Mean: group mean n=6; for Left hind limb / Right hind limb / Weight distribution (%) on treated limb (right hind limb): individual animals 201-206, listed as Test substance, sodium salt
Procedure: (§1) Twelve 11- to 12-week-old male rabbits (Kbs:NZW) were used. Rabbits were reared in separate cages (one rabbit per cage) at 14.4° C. to 24.9° C. under light (12 hours from 7:00 am to 7:00 pm) with continuous ventilation. Rabbits were allowed to eat 150 g of feed (CR-3, CLEA Japan, Inc.) per day and to drink tap water.
(§2) (9Z)-9-Octadecenoic acid-(2-hydroxy-2-oxide-1,2-oxaphospholan-4-yl)methyl ester sodium salt (C18:1-cPA; hereafter, referred to as “ScPA”) was used.
(§3) Hair in the vicinity of the knee joint of the right hind limb of a rabbit was shaved using electrical clippers under deep anesthesia, and the shaved area was disinfected with Isodine. The outer coat on the medial aspect of the right hind limb was incised with a surgical knife, the boundary between the medial aspect and the articular capsule of the patellofemoral ligament was further incised, and the medial patellofemoral ligament was then dissected. Thereafter, the articular capsule was spread wide open to expose the medial meniscus, which was then completely removed. Following the removal of the meniscus, tissue and epidermis in the vicinity of the articular capsule were sutured. At the time of suturing, the site of operation was washed with physiological saline (titer: 500 mg/20 ml) containing antibiotics (Viccillin, Meiji Seika Pharma Co., Ltd.).
(§4) After the model animals were prepared, they were divided into two groups each consisting of 6 individuals while averaging body […] (i.e., the vehicle administered group of Animal Numbers 101 to 106 and the test substance (ScPA) administered group of Animal Numbers 201 to 206).
(§5) The test compound and the vehicle were administered in the manner described below. • Route of administration: into the joint cavity • Site of administration: right hind limb (treated limb) • Timing of administration: on days 7, 11, 14, 18, 21, 25, 28, 32, 35, and 39 • Dosage: Test compound: 10 μg/rabbit (volume: 0.2 ml) • Vehicle: 0.2 ml/rabbit • Means of administration: with the use of a 1.0-ml syringe (Terumo Corporation) and a 27 G injection needle (Terumo Corporation) (1-5) Pain Assessment (Weight Distribution Across both Hind Limbs) Frequency of Measurement:
Measurement was carried out seven times in total: i.e., before treatment and 1, 2, 3, 4, 5, and 6 weeks after the treatment.
Body weights loaded on the right hind limb and the left hind limb were separately measured using a weight scale, and the weight distribution on the treated limb (the right hind limb) was determined using the following equation. Weight distribution (%) on treated limb (right hind limb)=[right hind limb (kg)/(right hind limb (kg)+left hind limb (kg))]×100 (1-6) Swelling Assessment (Articular Swelling of both Hind Limbs) Frequency of Measurement: […]

[2] = system: osteoarthritis in rabbit knee; test: Swelling assessment (articular swelling of both hind limbs), rabbit knee osteoarthritis model; format: in vivo, rabbits (Kbs:NZW)
Procedure: as §1, §2, §3, §4, §5
Measurement was carried out 6 weeks after the treatment.
The widest areas at the joints of the right and left hind limbs were measured using digital calipers, and the articular swelling induced by osteoarthritis was determined using the following equation. Swelling (%) of treated limb (right hind limb)=[(right hind limb (mm)−left hind limb (mm))/(left hind limb (mm)[…])]×100 (1-7) Sampling of Biomaterials (day 42) and Post-Sampling Treatment

[3] = joint width, 10 μg/rabbit into joint cavity, Day 42, individual animals 201-206, listed as Test substance, sodium salt

## CCCCCCCC/C=C\CCCCCCCC(=O)OCC1COP(=O)([O-])C1.[Na+] (stereo not shown) [ScPA, (9Z)-9-Octadecenoic acid-(2-hydroxy-2-oxide-1,2-oxaphospholan-4-yl)methyl ester sodium salt]
[1]; Day 0 (before treatment)
  Weight distribution, Mean: 49.1%
  Left hind limb: 610 g and 400 g and 550 g and 460 g and 260 g and 310 g
  Right hind limb: 660 g and 320 g and 410 g and 490 g and 270 g and 350 g
  Weight distribution (%) on treated limb (right hind limb): 52% (2×) and 44% and 43% and 51% and 53%
[1]; Day 7
  Weight distribution, Mean: 32.1%
  Left hind limb: 1010 g and 410 g and 900 g and 750 g (2×) and 880 g
  Right hind limb: 660 g and 160 g and 140 g and 520 g and 430 g and 460 g
  Weight distribution (%) on treated limb (right hind limb): 40% and 28% and 13% and 41% and 33% and 38%
[1]; Day 14
  Weight distribution, Mean: 39.4%
  Left hind limb: 770 g and 400 g and 640 g and 810 g and 700 g and 600 g
  Right hind limb: 520 g and 200 g and 320 g and 630 g and 380 g and 610 g
  Weight distribution (%) on treated limb (right hind limb): 40% and 33% (2×) and 44% and 35% and 50%
[1]; Day 21
  Weight distribution, Mean: 43.0%
  Left hind limb: 710 g and 440 g and 350 g and 580 g (2×) and 760 g
  Right hind limb: 380 g and 370 g and 720 g and 250 g and 450 g and 440 g
  Weight distribution (%) on treated limb (right hind limb): 35% and 46% and 67% and 30% and 37% and 43%
[1]; Day 28
  Weight distribution, Mean: 47.0%
  Left hind limb: 700 g and 290 g and 260 g and 750 g and 710 g and 800 g
  Right hind limb: 600 g (2×) and 150 g and 390 g and 660 g and 780 g
  Weight distribution (%) on treated limb (right hind limb): 46% (2×) and 34% and 60% and 47% and 49%
[1]; Day 35
  Weight distribution, Mean: 39.1%
  Left hind limb: 650 g and 800 g and 470 g and 1030 g and 570 g and 870 g
  Right hind limb: 350 g (2×) and 380 g and 630 g and 560 g and 510 g
  Weight distribution (%) on treated limb (right hind limb): 35% and 30% and 45% and 38% and 50% and 37%
[1]; Day 42, p=0.0053 vs vehicle
  Weight distribution, Mean: 46.7%
[1]; Day 42
  Left hind limb: 620 g and 700 g and 380 g and 820 g and 840 g and 580 g
  Right hind limb: 440 g and 510 g and 630 g and 660 g and 520 g and 610 g
  Weight distribution (%) on treated limb (right hind limb): 42% (2×) and 62% and 45% and 38% and 51%
[1]; after day 14 up to day 42
  weight loaded on the treated limb (the right hind limb) compared with the vehicle administered group: maintained at higher levels
[2]; 10 μg/rabbit into joint cavity, Day 42, group mean n=6, p=0.0164 vs vehicle
  Swelling, Mean: 0.6%
[2]; 10 μg/rabbit into joint cavity, Day 42, individual animals 201-206, listed as Test substance, sodium salt
  Swelling (%) of treated limb (right hind limb): −1.75% and 1.58% and 3.72% and −5.46% and 6.59% and −1.97%
[2]; day 42, p=0.0164
  articular swelling compared with the vehicle administered group: inhibited more significantly
[2]; [3]
  Left hind limb (mm): 24.60 mm and 23.38 mm and 21.50 mm and 22.88 mm and 23.21 mm and 21.79 mm
  Right hind limb (mm): 24.17 mm and 23.75 mm and 22.30 mm and 21.63 mm and 24.74 mm and 21.36 mm

From US9085593B2, “Therapeutic agent for arthrosis” (SANSHO CO., LTD., priority 2011, dated 2015)
